Measurements from patent publication US20040157268A1, “Conformational assays to detect binding to membrane spanning, signal-transducing proteins” (priority 2001, published 2004).

Experiments:
FM-β2AR [1] = target: T1, FM-β2AR (Homo sapiens, UniProt P07550); assay: Quenching of FM-β2AR fluorescence (KI, oxyl-NHS, nitroxide fatty acids), Stern-Volmer; assay type: biochemical; parameters: made in house; details: for quenching constant Ksv (nitroxide fatty acids): total lipid constant with stearic acid, n=3
FM-β2AR [2] = target: T1, FM-β2AR; assay: Fluorescence lifetime analysis of FM-β2AR (frequency domain); assay type: biochemical; parameters: made in house
Description: Fluorescence lifetime analysis of fluorescein labeled β2AR. […] The instrument covered a wide frequency range (4-5000 MHz), which allowed detection of lifetimes ranging from several nanoseconds to a few picoseconds. Samples were placed in a 10-mm path-length cuvette. The excitation was provided by the frequency-doubled output of a cavity-dumped pyridine-2 dye laser tuned at 370 nm synchronously pumped by a mode-locked argon ion laser. Sample emission was filtered through Corning 3-72 and 4-96 filters.
The governing equations for the time-resolved intensity decay data were assumed to be a sum of discrete exponentials as in I(t)=IoΣiαie^t/τ^i, where I(t) is the intensity decay, αi is the amplitude (pre-exponential factor) and τi is the fluorescence lifetime of the i-th discrete component; or a sum of Gaussian distribution functions as in the equation I(t)=IoΣiαiτe^t/τ and [formula]
In the frequency domain, the measured quantities at each frequency ω, are the phase shift (Øω) and demodulation factor (mω) of the emitted light versus the reference light.
Fractional intensity, amplitude, and lifetime parameters were recovered by a non-linear least squares procedure using the software developed at the Center for Fluorescence Spectroscopy. The measured data were compared with calculated values (Øcω,mcω) and the goodness of fit was characterized by [formula]
where ν is the number of degrees of freedom and δØ and δm are the uncertainties in the measured phase and modulation values, respectively. The sum extends over all frequencies (ω).

FM-β2AR [3] = target: T1, FM-β2AR; assay: Fluorescence intensity of FM-β2AR (fluorescein maleimide at Cys265), time course; details: ligand added to FM-β2AR, in words
FM-β2AR [4] = assay: Quenching of FM-β2AR fluorescence (KI, oxyl-NHS, nitroxide fatty acids), Stern-Volmer; assay type: biochemical, human; details: ISO-induced change in fluorescence with quencher vs without; 250 mM KI vs 250 mM KCl; Oxyl-NHS bound to K224 in TM5; ALP reversal as measure; n=3
[5] = Gaussian lifetime distribution, long component
[6] = Gaussian lifetime distribution, short component
[7] = fit to discrete exponential functions

T1 sequence (P07550 whole entry, the tested form may be a part): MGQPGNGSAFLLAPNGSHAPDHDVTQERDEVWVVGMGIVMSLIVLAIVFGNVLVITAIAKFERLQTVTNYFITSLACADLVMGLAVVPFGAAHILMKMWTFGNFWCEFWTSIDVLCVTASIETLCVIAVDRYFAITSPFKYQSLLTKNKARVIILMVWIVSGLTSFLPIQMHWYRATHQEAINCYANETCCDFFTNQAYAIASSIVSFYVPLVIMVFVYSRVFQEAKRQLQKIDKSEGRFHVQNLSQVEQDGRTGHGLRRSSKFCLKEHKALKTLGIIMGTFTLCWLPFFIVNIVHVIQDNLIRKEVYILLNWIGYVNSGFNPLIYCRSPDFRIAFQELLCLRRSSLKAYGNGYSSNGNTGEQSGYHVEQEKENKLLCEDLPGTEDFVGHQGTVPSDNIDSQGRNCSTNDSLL

## CCCCCCCCCCCCCC1(CCCC(=O)O)OCC(C)(C)N1[O] (stereo not shown) [5-DOX, 5-doxyl stearate]
FM-β2AR [1]; 100 μM 5-DOX
  effect on magnitude of the agonist-induced change in fluorescence: no significant effect
  quenching of baseline fluorescence: 12%
FM-β2AR [1]
  quenching constant Ksv (nitroxide fatty acids): 1.4 ± 0.2 mM⁻¹

## CCCCCCCCCCCCCCCC[N+](C)(C)C1CC(C)(C)N([O])C(C)(C)C1.[I-] [CAT-16]
FM-β2AR [1]; 50 μM CAT-16
  effect on magnitude of the agonist-induced fluorescence change: more than two fold
  quenching of baseline fluorescence: ~12%
FM-β2AR [1]
  quenching constant Ksv (nitroxide fatty acids): 2.4 ± 0.1 mM⁻¹

## CC(CCc1ccc(O)cc1)NCCc1ccc(O)c(O)c1 (stereo not shown) [DOB, dobutamine]
FM-β2AR [2]; [5]
  FWHMLONG: 0.4±0.4
  τLONG: 4.38±0.01 nsec
FM-β2AR [2]; [6]
  FWHMSHORT: 0.9±0.6
  τSHORT: 1.78±0.01 nsec
FM-β2AR [2]; [7]
  τ1 (nsec): 4.36 ± 0.01 nsec
  τ2 (nsec): 1.68 ± 0.3 nsec
FM-β2AR [2]; fit to discrete exponential functions, fractional contribution of τ2
  α2: 0.07 ± 0.01
FM-β2AR [3]
  change in FM-β2AR fluorescence: progressively smaller changes

## [I-].[K+] [KI, potassium iodide]
FM-β2AR [4]
  % of control ISO response: 55.4±8.3%

## CNC[C@H](O)c1ccc(O)c(O)c1 [epinephrine]
FM-β2AR [3]
  change in FM-β2AR fluorescence: progressively smaller changes
